Results from US20260226108A1, “FUSION POLYPEPTIDE AJ007 AND USE THEREOF” (NANJING ANJI BIOTECHNOLOGY CO, LTD., priority 2023, published 2026).
Residues, ends and D or L forms follow the SMILES beside them.

Test: Ocular tissue distribution at equimolar concentration, eye dropping or intravitreal injection (Example 5), ELISA
Format: in vivo, C57BL/6J mice
Description: This example provides an ocular tissue distribution comparison experiment of the polypeptide eye drops (AJ007 eye drops) in Example 2 with an equimolar concentration of the multifunctional fusion polypeptide VI (HM-1), a multifunctional fusion polypeptide VI preparation (HM-1 preparation, with a polypeptide being HM-1 and a formulation of other excipients being the same as the AJ007 eye drops), a fusion polypeptide AJ007 preparation (TAT-HM-1, with a polypeptide being AJ007 and pure water as a vehicle) after eye dropping, and the multifunctional fusion polypeptide VI (HM-1) after intravitreal injection, which is specifically described below.
Animal grouping: […] C57BL/6J mice were randomly divided into a total of 7 time point groups, including 0 h, 10 min, 1 h, 3 h, 7 h, 12 h, and 24 h, with 2 mice in each group.
Experimental process: All the mice in the eye drop administration groups were administered bilateral eye drops 1 time, with 5 μL of a corresponding drug solution dropped into each eye, while 5 μL of a corresponding drug solution was injected into both eyes in the HM-1 intravitreal injection group. At the 7 time points of 0 h, 10 min, 1 h, 3 h, 7 h, 12 h, and 24 h after the completion of administration, the mice in the corresponding groups were respectively subjected to eyeball removal and blood collection, the collected whole blood was immediately centrifuged at 6,000 rpm for 5 minutes, and then, a supernatant was sucked and stored as a sample to be tested. Additionally, 3 tissue sites, namely the vitreous body, the retina, and the RPE/choroid complex, were isolated from an eyeball under a stereomicroscope, into which PBS was added at 1:10 for dilution, followed by grinding and centrifugation at 12,000 rpm for 5 minutes. A supernatant was sucked to serve as a sample to be tested. Subsequently, the concentration of HM-1 or fusion polypeptide AJ007 in each tissue was detected by an ELISA method.

Structure (SMILES) | maintenance time at the RPE/choroid complex (eye dropping) | maintenance time at the RPE/choroid complex (intravitreal injection)
C[C@H](NC(=O)CNC(=O)[C@H](CCCNC(=N)N)NC(=O)[C@H](CCCNC(=N)N)NC(=O)[C@H](CCCNC(=N)N)NC(=O)[C@H](CCCNC(=N)N)NC(=O)[C@H](CCC(N)=O)NC(=O)[C@H](CCCNC(=N)N)NC(=O)[C@H](CCCNC(=N)N)NC(=O)[C@H](CCCCN)NC(=O)[C@H](CCCCN)NC(=O)[C@H](CCCNC(=N)N)NC(=O)CNC(=O)[C@@H](N)Cc1ccc(O)cc1)C(=O)N[C@@H](CC(=O)O)C(=O)N[C@@H](CCCNC(=N)N)C(=O)N[C@@H](C)C(=O)NCC(=O)NCC(=O)NCC(=O)NCC(=O)N[C@@H](CCCNC(=N)N)C(=O)NCC(=O)N[C@@H](CC(=O)O)C(=O)O [AJ007] (H-YGRKKRRQRRRRGADRAGGGGRGD-OH; N-terminus and C-terminus assumed) | shorter | –
C[C@H](NC(=O)CNC(=O)[C@@H](N)CCCNC(=N)N)C(=O)N[C@@H](CC(=O)O)C(=O)N[C@@H](CCCNC(=N)N)C(=O)N[C@@H](C)C(=O)NCC(=O)NCC(=O)NCC(=O)NCC(=O)N[C@@H](CCCNC(=N)N)C(=O)NCC(=O)N[C@@H](CC(=O)O)C(=O)O [HM-1, Arg-Gly-Ala-Asp-Arg-Ala-Gly-Gly-Gly-Gly-Arg-Gly-Asp] (H-RGADRAGGGGRGD-OH; N-terminus and C-terminus assumed) | very short | shorter
